Experiments:
Format in all cases: in vivo
[1] = system: barnyardgrass (Echinochloa crus-galli); assay: Test A preemergence
Procedure, shortened: (§1)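 Compounds were formulated in a non-phytotoxic solvent mixture with surfactant and applied as a preemergence directed soil spray after seeding, or sprayed postemergence over plants 2 to 10 cm tall at the one- to two-leaf stage. Evaluation after about 10 d compared treated with untreated controls, using a scale from 0 (no effect) to 100 (complete control).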

[2] = system: ryegrass, Italian (Italian ryegrass, Lolium multiflorum); assay: Test A preemergence
Procedure, shortened: as §1

[3] = system: pigweed (Amaranthus retroflexus); assay: Test A preemergence
Kochia (Kochia scoparia) [4] = assay: Test A preemergence
Procedure, shortened: as §1

[5] = system: giant foxtail (Setaria faberii); assay: Test A preemergence
Procedure, shortened: as §1

[6] = system: ragweed (common ragweed, Ambrosia elatior); assay: Test A preemergence
Procedure, shortened: as §1

[7] = system: barnyardgrass (Echinochloa crus-galli); assay: Test B flooded paddy test; conditions: Flood, 250 g ai/ha; 0 to 100 scale where 0 is no effect and 100 is complete control; 13 to 15 d
Procedure, shortened: (§2)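 2-leaf plants; pots flooded 3 cm over soil; cpd added to paddy water; depth held; greenhouse 13–15 d; visual rating vs controls, 0 = no effect, 100 = complete control.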

[8] = system: ducksalad (Heteranthera limosa); assay: Test B flooded paddy test; conditions: Flood, 250 g ai/ha; 0 to 100 scale where 0 is no effect and 100 is complete control; 13 to 15 d
Procedure, shortened: as §2

[9] = system: sedge, umbrella (small-flower umbrella sedge, Cyperus difformis); assay: Test B flooded paddy test; conditions: Flood, 250 g ai/ha; 0 to 100 scale where 0 is no effect and 100 is complete control; 13 to 15 d
Procedure, shortened: as §2

rice (Oryra sativa) = assay: Test B flooded paddy test; conditions: Flood, 250 g ai/ha; 0 to 100 scale where 0 is no effect and 100 is complete control; 13 to 15 d
Procedure, shortened: as §2

[10] = system: barnyardgrass (Echinochloa crus-galli); assay: Test A postemergence
Procedure, shortened: as §1

[11] = system: ryegrass, Italian (Italian ryegrass, Lolium multiflorum); assay: Test A postemergence
Procedure, shortened: as §1

[12] = system: pigweed (Amaranthus retroflexus); assay: Test A postemergence
Procedure, shortened: as §1

[13] = system: Galium (catchweed bedstraw, Galium aparine); assay: Test A postemergence
Procedure, shortened: as §1

Kochia (Kochia scoparia) [14] = assay: Test A postemergence
Procedure, shortened: as §1

[15] = system: giant foxtail (Setaria faberii); assay: Test A postemergence
Procedure, shortened: as §1

[16] = system: blackgrass (Alopecurus myosuroides); assay: Test A postemergence
Procedure, shortened: as §1

[17] = system: ragweed (common ragweed, Ambrosia elatior); assay: Test A postemergence
Procedure, shortened: as §1

corn (Zea mays) = assay: Test A postemergence
Procedure, shortened: as §1

[18] = system: wheat (Triticum aestivum); assay: Test A postemergence
Procedure, shortened: as §1

[19] = 125 g ai/ha, preemergence, 0 to 100 scale (0 no effect, 100 complete control)
[20] = Preemergence, 500 g ai/ha, 0 is no effect, 100 is complete control
[21] = 500 g ai/ha, postemergence, 0 to 100 scale, 0 no effect, 100 complete control
[22] = Postemergence, 125 g ai/ha, visual injury, 0 to 100 scale (0 no effect, 100 complete control), approx. 10 d
[23] = 125 g ai/ha, Preemergence, visual injury after approximately 10 d, 0 to 100 scale where 0 is no effect and 100 is complete control
[24] = 500 g ai/ha, preemergence, 0 to 100 scale, 0 = no effect, 100 = complete control
[25] = 125 g ai/ha, postemergence, visual rating after approx. 10 d, 0 to 100 scale (0 no effect, 100 complete control)
[26] = 500 g ai/ha, postemergence, visual injury, 0 to 100 scale (0 no effect, 100 complete control), approx. 10 d
[27] = Preemergence, 500 g ai/ha, visual injury approx. 10 d
[28] = Postemergence, 500 g ai/ha, 0 to 100 scale where 0 is no effect and 100 is complete control

Cc1ccc(C2CNC(=O)C2C(=O)Nc2ccc(F)c(F)c2F)cc1F (racemic) [Compound 371]
0: Plant response rating, Ryegrass, Italian [2, 19] | Plant response rating, Pigweed [3, 19] | Plant response rating, Sedge, Umbrella [9] | Plant response rating, Pigweed [12, 22] | Plant response rating, Ragweed [17, 22] | Plant response rating, Wheat [18, 22]
80: Plant response rating, Barnyardgrass [10, 22]
40: Ragweed plant response rating (0 to 100 scale) [6, 20] | Plant response rating, Kochia (Kochia (Kochia scoparia) [14]; [21]) | Plant response rating, Wheat [18, 21]
50: Plant response rating, Foxtail, Giant [15, 22]
20: Ryegrass, Italian plant response rating (0 to 100 scale) [2, 20] | Pigweed plant response rating (0 to 100 scale) [3, 20] | Plant response rating, Kochia (Kochia (Kochia scoparia) [4]; [19]) | Plant response rating, Rice (rice (Oryra sativa)) | Plant response rating, Ryegrass, Italian [11, 22] | Plant response rating, Pigweed [12, 21] | Plant response rating, Kochia (Kochia (Kochia scoparia) [14]; [22]) | Plant response rating, Corn (corn (Zea mays); [22])
100: Plant response rating, Ducksalad [8]
90: Plant response rating, Barnyardgrass [1, 19] | Barnyardgrass plant response rating (0 to 100 scale) [1, 20] | Plant response rating, Foxtail, Giant [5, 19] | Foxtail, Giant plant response rating (0 to 100 scale) [5, 20] | Plant response rating, Barnyardgrass [10, 21] | Plant response rating, Foxtail, Giant [15, 21]
30: Plant response rating, Ragweed [6, 19] | Plant response rating, Ryegrass, Italian [11, 21] | Plant response rating, Galium [13, 21] | Plant response rating, Galium [13, 22] | Plant response rating, Blackgrass [16, 22] | Plant response rating, Ragweed [17, 21]
60: Kochia plant response rating (0 to 100 scale) (Kochia (Kochia scoparia) [4]; [20]) | Plant response rating, Barnyardgrass [7] | Plant response rating, Blackgrass [16, 21] | Plant response rating, Corn (corn (Zea mays); [21])

Cc1ccc(C2CNC(=O)C2C(=O)Nc2cccc(F)c2F)cc1C(F)(F)F (racemic) [Compound 679]
70: Plant response rating, Barnyardgrass [10, 26]
55: Plant response rating, Ducksalad [8]
80: Plant response rating, Barnyardgrass [1, 23]
40: Plant response rating, Pigweed [3, 24] | Plant response rating, Barnyardgrass [10, 25] | Plant response rating, Pigweed [12, 26] | Plant response rating, Galium [13, 25]
30: Plant response rating, Ryegrass, Italian [2, 24] | Plant response rating, Kochia (Kochia (Kochia scoparia) [4]; [23]) | Plant response rating, Ragweed [6, 24] | Plant response rating, Barnyardgrass [7] | Plant response rating, Foxtail, Giant [15, 26] | Plant response rating, Blackgrass [16, 25]
50: Plant response rating, Corn (corn (Zea mays); [26])
20: Plant response rating, Ryegrass, Italian [2, 23] | Plant response rating, Ryegrass, Italian [11, 26] | Plant response rating, Ragweed [17, 26] | Plant response rating, Corn (corn (Zea mays); [25]) | Plant response rating, Wheat [18, 26]
60: Plant response rating, Kochia (Kochia (Kochia scoparia) [4]; [24]) | Plant response rating, Galium [13, 26] | Plant response rating, Blackgrass [16, 26]
90: Plant response rating, Barnyardgrass [1, 24] | Plant response rating, Foxtail, Giant [5, 23] | Plant response rating, Foxtail, Giant [5, 24]
0: Plant response rating, Pigweed [3, 23] | Plant response rating, Ragweed [6, 23] | Plant response rating, Sedge, Umbrella [9] | Plant response rating, Rice (rice (Oryra sativa)) | Plant response rating, Ryegrass, Italian [11, 25] | Plant response rating, Pigweed [12, 25] | Plant response rating, Kochia (Kochia (Kochia scoparia) [14]; [25]) | Plant response rating, Kochia (Kochia (Kochia scoparia) [14]; [26]) | Plant response rating, Foxtail, Giant [15, 25] | Plant response rating, Ragweed [17, 25] | Plant response rating, Wheat [18, 25]

O=C1NCC(c2ccsc2Br)C1C(=O)Nc1ccccc1F (stereo not drawn) [Compound 597]
50: Plant response rating, Ducksalad [8]
80: Foxtail, Giant plant response rating (0 to 100 scale, 0 is no effect, 100 is complete control) [5, 27]
30: Plant response rating, Barnyardgrass [10, 28] | Plant response rating, Foxtail, Giant [15, 28]
20: Plant response rating, Barnyardgrass [1, 23] | Kochia plant response rating (0 to 100 scale, 0 is no effect, 100 is complete control) (Kochia (Kochia scoparia) [4]; [27]) | Plant response rating, Foxtail, Giant [5, 23] | Plant response rating, Galium [13, 28] | Plant response rating, Blackgrass [16, 28] | Plant response rating, Corn (corn (Zea mays); [28]) | Plant response rating, Wheat [18, 28]
70: Barnyardgrass plant response rating (0 to 100 scale, 0 is no effect, 100 is complete control) [1, 27]
0: Plant response rating, Ryegrass, Italian [2, 23] | Ryegrass, Italian plant response rating (0 to 100 scale, 0 is no effect, 100 is complete control) [2, 27] | Plant response rating, Pigweed [3, 23] | Pigweed plant response rating (0 to 100 scale, 0 is no effect, 100 is complete control) [3, 27] | Plant response rating, Kochia (Kochia (Kochia scoparia) [4]; [23]) | Plant response rating, Ragweed [6, 23] | Ragweed plant response rating (0 to 100 scale, 0 is no effect, 100 is complete control) [6, 27] | Plant response rating, Barnyardgrass [7] | Plant response rating, Sedge, Umbrella [9] | Plant response rating, Rice (rice (Oryra sativa)) | Plant response rating, Barnyardgrass [10, 25] | Plant response rating, Ryegrass, Italian [11, 25] | Plant response rating, Ryegrass, Italian [11, 28] | Plant response rating, Pigweed [12, 25] | Plant response rating, Pigweed [12, 28] | Plant response rating, Galium [13, 25] | Plant response rating, Kochia (Kochia (Kochia scoparia) [14]; [25]) | Plant response rating, Kochia (Kochia (Kochia scoparia) [14]; [28]) | Plant response rating, Foxtail, Giant [15, 25] | Plant response rating, Blackgrass [16, 25] | Plant response rating, Ragweed [17, 25] | Plant response rating, Ragweed [17, 28] | Plant response rating, Corn (corn (Zea mays); [25]) | Plant response rating, Wheat [18, 25]

— patent US12077503B2, “Substituted cyclic amides and their use as herbicides” (FMC CORPORATION, priority 2015, dated 2024)
